Article PMC10304291, “THC-Reduced Cannabis sativa L.—How Does the Solvent Determine the Bioavailability of Cannabinoids Given Orally?” (Nutrients, 2023)

Columns and labels:
[1] = rats; 3 or 6 h after oral CBD 50 mg/kg in olive oil; cited from earlier work
[2] = Whole-blood pharmacokinetics of CBD and THC after single oral dose of Cannabis sativa extract; details: whole blood, single oral dose of extract 30 mg/kg; for concentration at 0.5 h / concentration at 1 h / concentration at 2 h / concentration at 4 h / concentration at 6 h / concentration at 24 h / AUC(0-t) / Cmax / MRT / Tmax: male, Wistar, rat, 30 mg/kg; for concentration at 0.5 h / concentration at 1 h / concentration at 2 h / concentration at 4 h / concentration at 6 h / concentration at 24 h: oral; for AUC(0-t) / Cmax / MRT / Tmax: po; for AUC(0-t): AUC0–24, whole blood
[3] = mini-pigs; oral CBD 15 mg/kg; cited from earlier work
[4] = Brain pharmacokinetics of CBD and THC after single oral dose of Cannabis sativa extract; details: for mean concentration over time / Kp / concentration at 0.5 h / concentration at 1 h / concentration at 2 h / concentration at 4 h / concentration at 6 h / AUC(0-t) / Cmax / MRT: single oral dose of extract 30 mg/kg; for mean concentration over time: Table 7; for Kp: brain / whole blood, AUCbrain:AUC whole blood (AUC0–24 ratio); for concentration at 0.5 h / concentration at 1 h / concentration at 2 h / concentration at 4 h / concentration at 6 h: oral; for AUC(0-t): AUC0–24, brain
[5] = 12 healthy volunteers; chocolate cookies with 0.57 mg/kg CBD + 0.28 mg/kg THC; after 1.5–3 h; cited from earlier work
[6] = Mean Concentration ± SD, blood, Rapae oleum
[7] = Mean Concentration, blood, Cremophor
[8] = mean concentration over time, Blood/Cremophor, Table 7
[9] = mean concentration over time, Blood/Rapae Oleum, Table 7
[10] = male, Wistar, rat, brain, po, 30 mg/kg, Cremophor
[11] = male, Wistar, rat, brain, po, 30 mg/kg, Rapae oleum

For `CCCCCc1cc(O)c2c(c1)OC(C)(C)[C@@H]1CCC(C)=C[C@@H]21` [THC, Δ-9-tetrahydrocannabinol], the “Δ9-THC in the blood after oral CBD” value [1] is given as “did not detect”, the concentration at 0.5 h [2, 6] is given as 11.9 ± 18 ng/g and the concentration at 1 h [2, 6] is given as 11 ± 5.21 ng/g. The concentration at 2 h [2, 6] was 24 ± 7.22 ng/g, the concentration at 4 h [2, 6] was 26.2 ± 19.1 ng/g and the concentration at 6 h [2, 6] was 10.3 ± 2.1 ng/g. The concentration at 24 h [2, 6] was 0.445 ± 0.21 ng/g, the concentration at 0.5 h [2, 7] was 13.1 ± 10.9 ng/g and the concentration at 1 h [2, 7] was 18.5 ± 1.98 ng/g. It also gave a concentration at 2 h [2, 7] of 14 ± 3.3 ng/g, a concentration at 4 h [2, 7] of 8.01 ± 1.48 ng/g and a concentration at 6 h [2, 7] of 9.04 ± 4.39 ng/g. It also gave a concentration at 24 h [2, 7] of 3.79 ± 4.59 ng/g, a concentration at 0.5 h [2, 8] of 13.1 ng/mL and a concentration at 1 h [2, 8] of 18.5 ng/mL. For the same compound, the concentration at 2 h [2, 8] was 14 ng/mL, the concentration at 4 h [2, 8] was 8.01 ng/mL and the concentration at 6 h [2, 8] was 9.04 ng/mL. It also gave a concentration at 24 h [2, 8] of 3.79 ng/mL, a concentration at 0.5 h [2, 9] of 11.9 ng/mL and a concentration at 1 h [2, 9] of 11 ng/mL. It also gave a concentration at 2 h [2, 9] of 24 ng/mL, a concentration at 4 h [2, 9] of 26.2 ng/mL and a concentration at 6 h [2, 9] of 10.3 ng/mL. It also gave a concentration at 24 h [2, 9] of 0.445 ng/mL, an AUC(0-t) ([2]; Cremophor) of 217 ng·h/mL and an AUC(0-t) ([2]; Rapae oleum) of 186 ng·h/mL. The Cmax ([2]; Cremophor) was 18.5 ng/mL, the Cmax ([2]; Rapae oleum) was 26.2 ng/mL and the MRT ([2]; Cremophor) was 12.7 h. For the same compound, the MRT ([2]; Rapae oleum) was 5.75 h, the Tmax ([2]; Cremophor) was 1 h and the Tmax ([2]; Rapae oleum) was 4 h. The CL ([2]; Cremophor) was 2.18 L/h, the Vd ([2]; Cremophor) was 28.26 L and the CL ([2]; Rapae oleum) was 2.56 L/h. For the same compound, the Vd ([2]; Rapae oleum) was 15.15 L, the “Δ9-THC after oral CBD” value [3] was “did not detect” and the “mean concentration over time” value ([4]; Brain/Cremophor, 0.5 h) was 18.575. For the same compound, the “mean concentration over time” value ([4]; Brain/Cremophor, 1 h) was 49.521, the “mean concentration over time” value ([4]; Brain/Cremophor, 2 h) was 56.85 and the “mean concentration over time” value ([4]; Brain/Cremophor, 4 h) was 35.976. For the same compound, the “mean concentration over time” value ([4]; Brain/Cremophor, 6 h) was 35.947, the “mean concentration over time” value ([4]; Brain/Cremophor, 24 h) was 1.154 and the “mean concentration over time” value ([4]; Brain/Rapae oleum, 0.5 h) was 3.719. For the same compound, the “mean concentration over time” value ([4]; Brain/Rapae oleum, 1 h) was 43.593, the “mean concentration over time” value ([4]; Brain/Rapae oleum, 2 h) was 75.768 and the “mean concentration over time” value ([4]; Brain/Rapae oleum, 4 h) was 27.792. For the same compound, the “mean concentration over time” value ([4]; Brain/Rapae oleum, 6 h) was 3.7605, the “mean concentration over time” value ([4]; Brain/Rapae oleum, 24 h) was 0 and the Kp ([4]; male, Wistar, rat, po, 30 mg/kg, Cremophor) was 1.22. For the same compound, the Kp ([4]; male, Wistar, rat, po, 30 mg/kg, Rapae oleum) was 3.72, the concentration at 0.5 h ([4]; male, Wistar, rat, brain, 30 mg/kg, Mean Concentration ± SD, Rapae oleum, 0.5 h) was 3.72 ± 2.35 ng/g and the concentration at 1 h ([4]; male, Wistar, rat, brain, 30 mg/kg, Mean Concentration ± SD, Rapae oleum, 1 h) was 43.6 ± 24.8 ng/g. It also gave a concentration at 2 h ([4]; male, Wistar, rat, brain, 30 mg/kg, Mean Concentration ± SD, Rapae oleum, 2 h) of 75.8 ± 43.8 ng/g, a concentration at 4 h ([4]; male, Wistar, rat, brain, 30 mg/kg, Mean Concentration ± SD, Rapae oleum, 4 h) of 27.8 ± 15.2 ng/g and a concentration at 6 h ([4]; male, Wistar, rat, brain, 30 mg/kg, Mean Concentration ± SD, Rapae oleum, 6 h) of 3.76 ± 2.61 ng/g. The concentration at 0.5 h ([4]; male, Wistar, rat, brain, 30 mg/kg, Mean Concentration, Cremophor, 0.5 h) was 18.6 ± 11.6 ng/g, the concentration at 1 h ([4]; male, Wistar, rat, brain, 30 mg/kg, Mean Concentration, Cremophor, 1 h) was 49.5 ± 9.47 ng/g and the concentration at 2 h ([4]; male, Wistar, rat, brain, 30 mg/kg, Mean Concentration, Cremophor, 2 h) was 56.9 ± 7.39 ng/g. It also gave a concentration at 4 h ([4]; male, Wistar, rat, brain, 30 mg/kg, Mean Concentration, Cremophor, 4 h) of 36 ± 7.45 ng/g, a concentration at 6 h ([4]; male, Wistar, rat, brain, 30 mg/kg, Mean Concentration, Cremophor, 6 h) of 35.9 ± 12.7 ng/g and a Tmax ([4]; male, Wistar, rat, brain, po, 30 mg/kg) of 4 h. The AUC(0-t) [4, 10] was 656 ng·h/mL, the AUC(0-t) [4, 11] was 553 ng·h/mL and the Cmax [4, 10] was 56.9 ng/g. The Cmax [4, 11] was 75.8 ng/g, the MRT [4, 10] was 5.11 h and the MRT [4, 11] was 7.19 h. For the same compound, the whole-blood concentration [5] was “about 5 ng/mL”.
